Six compounds from patent US8293781B2, “Indole derivatives having cPLA2 inhibiting activity and applications and production methods of the same” (Daiichi Sankyo Company, Limited, priority 2007, dated 2012) can be followed below.

For test [1], the system named is guinea pig antigen induced bronchial asthma model. Kind of test: Guinea pig antigen induced bronchial asthma model: airway resistance (IAR, LAR). In kind it is in vivo. Particulars: for IAR suppression rate (airway resistance): immediate asthmatic response, 1 minute after challenge; for LAR suppression rate (airway resistance): late asthmatic response, AUC 4 to 8 hours. The protocol:
(§1) Hartley male guinea pigs (Kyudo Co., Ltd.) were sensitized by inhaling the aerosolized 1% OVA-containing physiological saline solution for consecutive 8 days. One week after the final sensitization, antigen antibody reaction was elicited by inhaling the aerosolized 2% OVA-containing physiological saline solution. 24 hours and 1 hour before antigen challenge, metyrapone (10 mg/kg, 1.0 ml/kg) was injected to the hind limb peripheral vein. 30 minutes before antigen challenge, pyrilamine maleate (10 mg/kg, 1.0 ml/kg) was administered intraperitoneally. The test compound (5 mg/kg and 20 mg/kg, 5.0 ml/kg) was administered once a day from the day after the final sensitization to the day before challenge. On the day of challenge, it was administered orally 1 hour before challenge and 8 hours after challenge. Note that the number of mice used in the test was made eight per group.
The airway resistance (sRaw) was measured using a total respiratory function analysis system (Pulmos-I, made by M.I.P.S.) before antigen challenge, 1 minute after finishing the antigen challenge, and 2, 4, 5, 6, 7, 8, and 22 to 24 hours after antigen challenge. […] The late asthmatic response (LAR) was evaluated by calculating the AUC from the rate of change 4 to 8 hours after inducement based on the measurement values and finding the value obtained by subtratcting the AUC of each compound administered group from the AUC of the vehicle administered group with the control inhibition rate as a percent (%) with respect to the value of the vehicle administered group. The rates of suppression of typical compounds with respect to the increases in airway resistances in immediate asthmatic response (IAR) and late asthmatic response (LAR) are shown in Table 8.

Test [2] has as its system TXB2 production in whole blood. In words: Calcium ionophore-induced TXB2 production system using whole blood. The format is cell-based. Particulars: Cavia porcellus, 0.25 h; Hartley guinea pig heparin blood diluted 2-fold, A23187 5 μM, 15 minutes. The protocol: For evaluation of the TXB2 production inhibiting activity, the calcium ionophore-induced TXB2 production system using whole blood with reference to the method of Alanko (see Alanko J., Prostaglandins 45: 193, 1993) was used. That is, heparin blood taken from Hartley guinea pigs was diluted 2-fold by an RPMI1640 medium (Nakalai Tesque) containing 10 μg/ml gentamycin (Invitrogen). The entire blood after dilution was inoculated in a 96-well culture plate in amounts of 200 μl per well, then the test compound solution or solvent was added. After 30 minutes preculture, calcium ionophore (A23187) was added to a final concentration of 5 μM to induce TXB2 production. 15 minutes after stimulus, the supernatant was recovered by centrifugal separation and the amount of TXB2 in the supernatant was measured using an EIA kit (Amersham).
Based on the measurement value, the test compound concentration suppressing 50% of the TXB2 production at the time of non-addition of a compound (IC50 value) was calculated.

Test [3] deals with LTB4 production in rat mast cell like cell line RBL-2H3. Kind of test: Calcium ionophore-induced LTB4 production system using RBL-2H3. In kind it is cell-based. Particulars: 1 h, RBL-2H3, A23187 5 μM, one hour. On the procedure:
(§2) For the evaluation by LTB4 and Cys-LTs production inhibiting activity, the calcium ionophore-induced LTB4 and Cys-LTs production system using the rat mast cell like cell line RBL-2H3 with reference to the method of Ishiwara et al. (see Ishiwara M. et al., J Pharmacol Exp Ther 307: 583, 2003) was used. That is, rat mast cell like cell line RBL-2H3 cells were suspended in Dulbecco's modified Eagle's medium (Nacalai Tesque) containing 10% bovine fetal serum (BioWhittaker) and 10 μg/ml gentamycin (Invitrogen). The infiltrating cell suspension 200 μl containing 1×10^5 cells per well was inoculated to 96-well culture plate and cultured over night under conditions of 5% CO2 and 37° C. The culture supernatant was removed, then the test compound solution or solvent 50 μl was added. After 30 minutes preculture, calcium ionophore (A23187) was added to a final concentration of 5 μM to induce leukotriene production.
(§3) One hour after calcium ionophore stimulus, the culture supernatant was recovered and the amounts of LTB4 and Cys-LTs in the supernatant were measured using an EIA kit (made by Amersham). Based on the measurement values, the test compound concentrations suppressing 50% of the mediator production at the time of non-addition of a compound (IC50 value) were calculated.

Test [4] concerns TPA-induced mouse dermatitis model. Kind of test: TPA-induced mouse dermatitis model (ear thickness). In kind it is in vivo. Particulars: 50 mg/kg orally 30 minutes before TPA, 6 hours after TPA, C57BL/6 mice. On the procedure:
Phorbol ester (TPA) was applied to the ear to elicite acute inflammation having ear edema as a main symptom. In the present test model, it is known that arachidonic acid metabolites, constituting various lipid mediators, are involved in inflammation. By this Experiment, it is possible to evaluate the anti-inflammatory action in vivo of anti-inflammatory drugs acting on the arachidonic acid cascade.
The Experiment was performed with reference to the method of Chang et al. (see Chang J., Eur J Pharmacol 142: 197, 1987). That is, the ear of female C57BL/6 mice (Charles River Japan) were painted with 20 μl of TPA in an acetone solution (concentration 50 μg/ml) to induce dermatitis at the ear. The ear thicknesses before application of TPA and 6 hours after application of TPA were measured using a dial gauge and the increase in ear thickness caused by inflammation was calculated. The test compound or the 0.5% hydroxypropyl cellulose solution as vehicle was administered orally to the mice 30 minutes before application of TPA. Note that the number of mice used in the test was made six per group.
Based on the measurement value, the action of each test compound in suppressing the increase in ear thickness due to application of TPA was evaluated.

The test system of test [5] is guinea pig antigen induced bronchial asthma model. In words: Guinea pig antigen induced bronchial asthma model: airway hyperreactivity to acetyl choline. The format is in vivo. Particulars: 22 to 24 hours after inducement. The protocol:
as §1
The airway hyperreactivity was measured 22 to 24 hours after inducement. Physiological saline solution and acetyl choline in 0.0625, 0.125, 0.25, 0.5, 1, and 2 mg/ml amounts in physiological saline solutions were successively nebulized and made to be inhaled by guinea pigs 1 minute at a time each, then the sRaw was measured by a total respiratory function analysis system (Pulmos-I, made by M.I.P.S.) The results of evaluation of typical compounds are shown in Table 9 for different acetyl choline concentrations (PC100Ach, mg/ml) inducing 100% airway resistance.

Test [6] relates to Cys-LTs production in rat mast cell like cell line RBL-2H3. Kind of test: Calcium ionophore-induced Cys-LTs production system using RBL-2H3. Particulars: 1 h, RBL-2H3, A23187 5 μM, one hour. The format is cell-based. The protocol: as §2, §3

Counter-ions that a name gives are not always drawn.

Consider `O=C(O)CCc1ccc2c(c1)c(CCc1ccccc1)cn2-c1ccc(OCCO)cc1` [Example 229, 3-{1-[4-(2-hydroxyethoxy)phenyl]-3-(2-phenylethyl)-1H-indol-5-yl}propanoic acid 2-amino-2-(hydroxymethyl)propane-1,3-diol salt (1:1)], for which the “IAR suppression rate (airway resistance)” value is 15% in test [1] (5 mg/kg oral) and 33% in test [1] (20 mg/kg oral). In addition, the “LAR suppression rate (airway resistance)” value in test [1] (5 mg/kg oral) came to 22%; in test [1] (20 mg/kg oral), 37%. Besides, the IC50 in test [2] was determined as 580 nM; in test [3], 20 nM; in test [6], 400 nM. Moreover, the “Suppression rate of increase in ear thickness” value (shortened to “Suppression rate of increase”) in test [4] came out at 23.9%. The “PC100ACh (acetyl choline concentration inducing 100% airway resistance)” value in test [5] (5 mg/kg oral) came out at 0.47 mg/mL; in test [5] (20 mg/kg oral), 0.74 mg/mL.

With `COCc1ccc(-n2cc(CCc3ccccc3)c3cc(CCC(=O)O)ccc32)cc1` [Example 217, 3-{1-[4-(methoxymethyl)phenyl]-3-(2-phenylethyl)-1H-indol-5-yl}propanoic acid 2-amino-2-(hydroxymethyl)propane-1,3-diol salt (1:1)], the IC50 was 2020 nM in test [2], 500 nM in test [3] and 1260 nM in test [6]. Also, the “Suppression rate of increase” value in test [4] amounted to 22.8%.

Regarding `O=C(O)CCc1ccc2c(c1)c(CCc1ccccc1)cn2-c1ccc(Oc2ccccc2)cc1` [Example 231, 3-[1-(4-phenoxyphenyl)-3-(2-phenylethyl)-1H-indol-5-yl]propanoic acid 2-amino-2-(hydroxymethyl)propane-1,3-diol salt (1:1)], the entries for the “IAR suppression rate (airway resistance)” value in test [1] (5 mg/kg oral) and in test [1] (20 mg/kg oral) were 21% and 59%, respectively. Moreover, the “LAR suppression rate (airway resistance)” value in test [1] (5 mg/kg oral) amounted to 45%; in test [1] (20 mg/kg oral), 78%. Further, the IC50 in test [2] came to 540 nM; in test [3], 180 nM; in test [6] it was 300 nM. In test [4], the “Suppression rate of increase” value is given as 30.4%. For the same compound, the “PC100ACh (acetyl choline concentration inducing 100% airway resistance)” value is reported as 1.02 mg/mL in test [5] (5 mg/kg oral) and 1.09 mg/mL in test [5] (20 mg/kg oral).

On to `O=C(O)CCc1ccc2c(c1)c(CCc1ccccc1)cn2-c1ccc(OC(F)F)cc1` [Example 190, 3-{1-[4-(difluoromethoxy)phenyl]-3-(2-phenylethyl)-1H-indol-5-yl}propanoic acid 2-amino-2-(hydroxymethyl)propane-1,3-diol salt (1:1)], for which the “IAR suppression rate (airway resistance)” value in test [1] (5 mg/kg oral) and in test [1] (20 mg/kg oral) was 2% throughout. Also, the results for the “LAR suppression rate (airway resistance)” value in test [1] (5 mg/kg oral) and in test [1] (20 mg/kg oral) were 46% and 42%, respectively. Also, the half-inhibitory concentration (IC50) was 1370 nM in test [2], 380 nM in test [3] and 1060 nM in test [6]. In addition, the “Suppression rate of increase” value in test [4] amounted to 27.6%. For the same compound, the “PC100ACh (acetyl choline concentration inducing 100% airway resistance)” value is listed as 0.57 mg/mL in test [5] (5 mg/kg oral) and 0.50 mg/mL in test [5] (20 mg/kg oral).

Consider `O=C(O)CCc1ccc2c(c1)c(CCc1ccccc1)cn2-c1ccc(F)cc1` [Example 187, 3-[1-(4-fluorophenyl)-3-(2-phenylethyl)-1H-indol-5-yl]propanoic acid], for which the IC50 in test [2] worked out at 5140 nM; in test [3], 260 nM; in test [6], 890 nM. Moreover, in test [4], the “Suppression rate of increase” value is reported as 25.4%.

As to `O=C(O)CCc1ccc2c(c1)c(CCc1ccccc1)cn2-c1ccc(O)cc1` [Example 126, 3-[1-(4-hydroxyphenyl)-3-(2-phenylethyl)-1H-indol-5-yl]propanoic acid], the IC50 in test [2] was determined as 1530 nM; in test [3] it was 770 nM; in test [6], 4170 nM. In addition, in test [4], the “Suppression rate of increase” value came out at 27.6%.

Broadly, the IC50 is the concentration that gives 50% inhibition.
